This note sets out measurements from ChEMBL document CHEMBL1129999, “Modeling, chemistry, and biology of the benzolactam analogues of indolactam V (ILV). 2. Identification of the binding site of the benzolactams in the CRD2 activator-binding domain of PKCdelta and discovery of an ILV analogue of improved isozyme selectivity” (J Med Chem, 1997).

Assay [1] concerns the target Protein kinase C alpha type (Homo sapiens, UniProt P17252). Description: Displacement of [3H]- PDBu from recombinant PKC alpha expressed in baculovirus. (In general: In a radioligand displacement assay an active substance lowers the binding of a labelled ligand.)
Assay [2] concerns the target T1, Protein kinase C delta type (Homo sapiens, UniProt Q05655). Description: Inhibition of [3H]PDBu binding to PKC delta mutant Gln 27-Gly (No binding).
Target sequence in this assay (Q05655 whole entry, looked up): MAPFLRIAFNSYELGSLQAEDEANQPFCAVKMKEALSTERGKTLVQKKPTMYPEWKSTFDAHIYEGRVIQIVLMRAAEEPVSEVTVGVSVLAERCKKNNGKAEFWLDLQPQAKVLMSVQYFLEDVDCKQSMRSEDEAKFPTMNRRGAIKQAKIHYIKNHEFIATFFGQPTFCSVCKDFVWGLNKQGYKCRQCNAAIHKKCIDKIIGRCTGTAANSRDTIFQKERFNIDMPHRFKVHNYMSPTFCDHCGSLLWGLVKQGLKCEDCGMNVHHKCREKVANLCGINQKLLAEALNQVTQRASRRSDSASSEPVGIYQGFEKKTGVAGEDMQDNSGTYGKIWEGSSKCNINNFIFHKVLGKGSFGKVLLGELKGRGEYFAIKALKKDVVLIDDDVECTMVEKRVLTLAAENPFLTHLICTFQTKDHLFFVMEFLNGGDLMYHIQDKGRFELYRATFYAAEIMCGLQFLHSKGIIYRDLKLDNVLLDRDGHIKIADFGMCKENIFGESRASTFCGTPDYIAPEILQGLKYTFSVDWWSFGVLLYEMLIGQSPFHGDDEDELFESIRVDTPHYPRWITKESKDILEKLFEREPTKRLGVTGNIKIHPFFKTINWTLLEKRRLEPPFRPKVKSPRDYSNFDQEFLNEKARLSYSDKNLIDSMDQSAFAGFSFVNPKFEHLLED
In assay [3] the target is T1, Protein kinase C delta type. Nature of the assay: Inhibition of [3H]-PDBu binding to PKC delta mutant Leu 24-Gly (No binding).
Target sequence in this assay (Q05655 whole entry, looked up): as above
The target is the same in assay [4]. Nature of the assay: Displacement of [3H]- PDBu from recombinant PKC delta expressed in baculovirus.
Target sequence in this assay (Q05655 whole entry): as the sequence (Q05655 whole entry, looked up) above
Assay [5] deals with T2, Protein kinase C epsilon type (Homo sapiens, UniProt Q02156).
T2 sequence (Q02156 whole entry): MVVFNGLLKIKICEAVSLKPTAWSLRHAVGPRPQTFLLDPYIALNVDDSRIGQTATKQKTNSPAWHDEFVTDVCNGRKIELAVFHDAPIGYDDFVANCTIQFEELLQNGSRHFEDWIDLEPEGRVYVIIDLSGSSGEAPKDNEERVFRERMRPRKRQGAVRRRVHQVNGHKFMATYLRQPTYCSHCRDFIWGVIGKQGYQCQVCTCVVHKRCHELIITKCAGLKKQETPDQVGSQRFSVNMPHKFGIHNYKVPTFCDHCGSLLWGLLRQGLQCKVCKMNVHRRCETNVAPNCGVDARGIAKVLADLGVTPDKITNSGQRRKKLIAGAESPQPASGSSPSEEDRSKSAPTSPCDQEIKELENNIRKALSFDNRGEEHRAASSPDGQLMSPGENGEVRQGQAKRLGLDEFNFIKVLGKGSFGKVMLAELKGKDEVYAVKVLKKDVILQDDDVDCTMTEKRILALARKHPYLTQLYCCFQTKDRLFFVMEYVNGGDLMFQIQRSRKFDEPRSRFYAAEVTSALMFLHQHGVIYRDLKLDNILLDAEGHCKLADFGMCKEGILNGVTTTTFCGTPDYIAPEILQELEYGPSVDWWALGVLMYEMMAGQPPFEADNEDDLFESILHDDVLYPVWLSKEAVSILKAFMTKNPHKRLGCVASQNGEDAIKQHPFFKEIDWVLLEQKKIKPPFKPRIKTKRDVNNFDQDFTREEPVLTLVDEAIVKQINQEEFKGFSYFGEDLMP
Description: Displacement of [3H]- PDBu from recombinant PKC epsilon expressed in baculovirus.

Assay [6] concerns the target Protein kinase C gamma type (Homo sapiens, UniProt P05129). Description: Displacement of [3H]- PDBu from recombinant PKC gamma expressed in baculovirus.
In assay [7] the target is Protein kinase C beta type (Homo sapiens, UniProt P05771). Description: Displacement of [3H]- PDBu from recombinant PKC beta expressed in baculovirus.
Protein kinase C beta type, sequence (P05771 whole entry): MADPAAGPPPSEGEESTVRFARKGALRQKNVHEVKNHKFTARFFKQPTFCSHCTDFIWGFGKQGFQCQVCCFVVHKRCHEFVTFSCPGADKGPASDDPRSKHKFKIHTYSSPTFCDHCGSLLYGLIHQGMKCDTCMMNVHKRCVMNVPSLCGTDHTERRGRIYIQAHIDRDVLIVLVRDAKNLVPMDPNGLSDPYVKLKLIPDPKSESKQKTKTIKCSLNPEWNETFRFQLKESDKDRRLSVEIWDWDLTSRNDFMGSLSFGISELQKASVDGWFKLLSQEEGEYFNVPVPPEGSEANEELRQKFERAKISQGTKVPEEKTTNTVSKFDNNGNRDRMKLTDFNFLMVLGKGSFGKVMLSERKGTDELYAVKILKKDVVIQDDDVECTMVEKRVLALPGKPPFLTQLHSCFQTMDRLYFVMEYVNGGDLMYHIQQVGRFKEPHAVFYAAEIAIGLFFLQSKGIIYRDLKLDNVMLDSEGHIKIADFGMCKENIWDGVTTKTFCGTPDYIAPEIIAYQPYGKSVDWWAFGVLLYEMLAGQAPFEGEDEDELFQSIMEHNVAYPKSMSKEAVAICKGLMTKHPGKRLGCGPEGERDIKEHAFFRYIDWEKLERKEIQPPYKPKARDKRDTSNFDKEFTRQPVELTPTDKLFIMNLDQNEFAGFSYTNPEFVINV
The target of assay [8] is T1, Protein kinase C delta type. Description: Inhibition of [3H]-PDBu binding to PKC delta mutant Gln 27-Val.
Target sequence in this assay (Q05655 whole entry, looked up): as the sequence (Q05655 whole entry, looked up) above
Assay [9] has the same target. Description: Inhibition of [3H]PDBu binding to PKC delta mutant Leu 20-Gly.
Target sequence in this assay (Q05655 whole entry, looked up): as above
For assay [10] the target is unchanged. Nature of the assay: Inhibition of [3H]PDBu binding to PKC delta mutant Pro 11-Gly.
Target sequence in this assay (Q05655 whole entry, looked up): as above
The target is the same in assay [11]. Nature of the assay: Inhibition of [3H]PDBu binding to PKC delta wild type.
Target sequence in this assay (Q05655 whole entry): as the sequence (Q05655 whole entry, looked up) above

Regarding `CC(C)[C@H]1C(=O)N[C@H](CO)Cc2ccccc2N1C`, the inhibitory constant (Ki) in assay [1] was 334 nM.

For `CCCC(=O)O[C@@H]1[C@@H](C)[C@@]2(O)[C@@H](C=C(CO)C[C@]3(O)C(=O)C(C)=C[C@@H]23)[C@@H]2C(C)(C)[C@]12OC(=O)CCC`, the Ki result in assay [2] and in assay [3] was “Not Active” in each case.

For `CCCCCCCCCCc1ccc2c(c1)C[C@@H](CO)NC(=O)[C@H](C(C)C)N2C`, the Ki in assay [4] turned out to be 142 nM; in assay [1], 46.6 nM; in assay [5], 187 nM; in assay [6], 122 nM.

`CCCCCCCCc1ccc2c3c(c[nH]c13)C[C@@H](CO)NC(=O)[C@H](C(C)C)N2C`: the Ki came out at 0.4 nM in assay [7]; 0.8 nM in assay [4]; 0.5 nM in [1]; 1 nM in [5]; 1.2 nM in [6].

Turning to `CCCCCCCCC#Cc1ccc2c(c1)C[C@@H](CO)NC(=O)[C@H](C(C)C)N2C`, the Ki came out at 17.4 nM in [7]; 122 nM in [4]; 933 nM in assay [8]; 134 nM in assay [9]; 730 nM in [10]; 10.7 nM in assay [11]. The results for the Ki in assay [1], in [5] and in assay [6] were 14.7 nM, 142 nM and 40.7 nM, respectively.

For the molecule `CC(C)[C@H]1C(=O)N[C@H](CO)Cc2c[nH]c3cccc(c23)N1C` [INDOLACTUM], the inhibition constant Ki in assay [7] is 6.1 nM; in [4] it was 8.2 nM; in [5] it was 21.9 nM; in [6], 19.4 nM.

A word on the Ki: it is a dissociation constant, usually derived from enzyme kinetics or from competition with a known ligand.
